Experimental data from patent US20110027324A1, “O-DESMETHYL-V[…] TREATING MAJOR DEPRESSIVE DISORDER” (Wyeth LLC, priority 2007, published 2011).

Columns and labels:
[1] = tested on: subjects with a primary diagnosis of MDD; assay: MDD Study No. 1: efficacy evaluation, randomized double-blind placebo-controlled 8-week study; type: in vivo, human
Description: This example describes the results of a multicenter, randomized, double-blind, placebo-controlled, parallel-group study that was designed to evaluate the efficacy and safety of 50 and 100 mg/day ODV for treating MDD.
Subjects were male or female outpatients at least 18 years of age who had depressive symptoms for at least 30 days before the screening visit, and a primary diagnosis of MDD based on the criteria in the Diagnostic and Statistical Manual of Mental Disorders, Fourth edition (DSM-IV), single or recurrent episode, without psychotic features. Minimum screening and baseline scores of 20 on the Hamilton Rating Scale for Depression, 17-item (HAM-D17), of 2 on item 1 (depressed mood) on the HAM-D17, and of 4 on the Clinical Global Impressions Scale-Severity (CGI-S) were also required.
The planned enrollment was 480 subjects. A total of 703 subjects were screened for participation; 229 were screen failures and 474 were randomly assigned to treatment: 159 were assigned to receive placebo, 158 were assigned to receive ODV 50 mg/day; and 157 were assigned to receive ODV 100 mg/day. Twenty-three (23) of these 474 subjects were considered “no-data subjects” (randomized to treatment without information as to treatment). […]
The primary outcome variable was the HAM-D17 total score. The key secondary outcome variable was the Clinical Global Impressions Scale-Improvement (CGI-D score. Other secondary efficacy variables included the CGI-S, the Montgomery and Asberg Depression Rating Scale (MADRS) score, the HAM-D6 (Bech version: HAM-D17 items 1, 2, 7, 8, 10, and 13) score, the Covi Anxiety Scale total score, the remission rate (percentage of subjects with HAM-D17 scores of ≦7), response rates for the HAM-D17 (50% or greater change from baseline in the HAM-D17 total score), MADRS, and CGI-I, and the visual analog scale for pain intensity (VAS-PI). Self-administered health outcomes assessments were measured by the Sheehan Disability Scale (SDS) and the World Health Organization 5-Item Well-Being Index (WHO-5). […]

[2] = tested on: subjects with a primary diagnosis of MDD; assay: MDD Study No. 3: safety evaluation (discontinuations, AEs); type: in vivo, human; conditions: count; for Adverse Event Abnormal Dreams, subjects / Adverse Event Vomiting, subjects: placebo 3 (2); for Adverse Event Constipation, subjects: placebo 4 (3); for Adverse Event Anorexia, subjects / Adverse Event Flu Syndrome, subjects: placebo 5 (3); for Adverse Event Asthenia, subjects / Adverse Event Insomnia, subjects: placebo 6 (4); for Adverse Event Somnolence, subjects: placebo 8 (5); for Adverse Event Nausea, subjects: placebo 14 (9)
Description: The safety of the two doses was determined using the same assessments as in Example 1.

[3] = tested on: norepinephrine and serotonin uptake; conditions: Klamerus et al., J. Clin. Pharmacol. 32:716-724 (1992); cited from earlier work

CN(C)CC(c1ccc(O)cc1)C1(O)CCCCC1 (stereo not drawn) [ODV, 1-[2-(dimethylamino)-1-(4-phenol)ethyl]-cyclohexanol]
HAM-D17 total score, adjusted mean change from baseline ([1]; 50 mg/day, FOT evaluation, ANCOVA LOCF, placebo −9.53): −11.5
HAM-D17 total score, adjusted mean change from baseline ([1]; 50 mg/day, week 8, mixed-effects model, placebo −9.86): −12.40
HAM-D17 total score, adjusted mean change from baseline ([1]; 100 mg/day, week 8, mixed-effects model, placebo −9.86): −11.88
Discontinued, reason Adverse Event, subjects ([2]; 50 mg, n = 148): 8 (5)
Adverse Event Abnormal Dreams, subjects ([2]; 50 mg, n = 148): 5 (3)
Adverse Event Vomiting, subjects ([2]; 50 mg, n = 148): 2 (1)
Adverse Event Constipation, subjects ([2]; 50 mg, n = 148): 9 (6)
Adverse Event Anorexia, subjects ([2]; 50 mg, n = 148): 14 (10)
Adverse Event Flu Syndrome, subjects ([2]; 50 mg, n = 148): 6 (4)
Adverse Event Asthenia, subjects ([2]; 50 mg, n = 148): 12 (8)
Adverse Event Insomnia, subjects ([2]; 50 mg, n = 148): 20 (14)
Adverse Event Somnolence, subjects ([2]; 50 mg, n = 148): 14 (10)
Adverse Event Nausea, subjects ([2]; 50 mg, n = 148): 33 (22)
Discontinued, reason Adverse Event, subjects ([2]; 100 mg, n = 150): 11 (7)
Adverse Event Abnormal Dreams, subjects ([2]; 100 mg, n = 150): 4 (3)
Adverse Event Vomiting, subjects ([2]; 100 mg, n = 150): 6 (4)
Adverse Event Constipation, subjects ([2]; 100 mg, n = 150): 10 (7)
Adverse Event Anorexia, subjects ([2]; 100 mg, n = 150): 14 (9)
Adverse Event Flu Syndrome, subjects ([2]; 100 mg, n = 150): 10 (7)
Adverse Event Asthenia, subjects ([2]; 100 mg, n = 150): 18 (12)
Adverse Event Insomnia, subjects ([2]; 100 mg, n = 150): 26 (17)
Adverse Event Somnolence, subjects ([2]; 100 mg, n = 150): 18 (12)
Adverse Event Nausea, subjects ([2]; 100 mg, n = 150): 35 (23)
inhibition of norepinephrine and serotonin uptake [3]: has been shown to inhibit norepinephrine and serotonin uptake
